20 compounds from PubChem BioAssay (NCI) can be followed below.

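Growth conditions: 96-well plates. Treatment: test compound, 48 hours, 5 concentrations. Analysis: linear interpolation between bracketing concentrations; unreached endpoints set to highest concentration. GI50: concentration for 50% inhibition of growth. TGI is the concentration that stops growth completely.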

Test systems include DLD-1 colon; DMS 114 small cell lung; M19-MEL melanoma; SNB-78 CNS; DMS 273 small cell lung; MDA-N; RXF-631 renal; BT-549 breast; MDA-MB-231 breast.
Holding throughout (experiment): NCI-60 cell line screen, 48 h

`CC1(C)OC(=O)C=C([O-])O1.CC1(C)OC(=O)C=C([O-])O1.CC[O-].CC[O-].[Ti+4]`: the GI50 in the assay on DLD-1 colon, in the assay on DMS 114 small cell lung, in the assay on M19-MEL melanoma and with SNB-78 CNS was above 100 µM in each case. Further, the TGI in the assay on DLD-1 colon, with DMS 114 small cell lung, with M19-MEL melanoma and with SNB-78 CNS was above 100 µM in each case.
Turning to `O=C1c2nc3n(c2C(=O)c2c1nc1n2CCC1)CCC3`, the TGI with DLD-1 colon is 18.2 µM; with DMS 114 small cell lung, 5.29 µM; in the assay with DMS 273 small cell lung, 12.7 µM; with M19-MEL melanoma, 0.387 µM; with MDA-N, 3.47 µM; with SNB-78 CNS, 31.1 µM.
Take `O=C(Nc1ccn(CCI)c(=O)n1)c1ccccc1`: the TGI with DLD-1 colon, in the assay with DMS 114 small cell lung, with DMS 273 small cell lung, in the assay with M19-MEL melanoma and in the assay on SNB-78 CNS was above 100 µM each time.
`CC1=C(C(=O)Nc2ccc([N+](=O)[O-])cc2)C(c2ccccc2F)C(C(=O)Nc2ccc([N+](=O)[O-])cc2)=C(C)N1`: the TGI is above 100 µM with DLD-1 colon, 87.8 µM in the assay on DMS 114 small cell lung, 55.5 µM with M19-MEL melanoma and above 100 µM with RXF-631 renal.
As to `CCCCCCC(/C=N/O)C(C)(O)CCC` (stereo unspecified), the TGI in the assay on DLD-1 colon, in the assay with DMS 114 small cell lung, in the assay with DMS 273 small cell lung, in the assay with M19-MEL melanoma and with SNB-78 CNS was above 100 µM throughout.
In the case of `O=C(O)C1=C(C(=O)Nc2ccc(NC(=O)C3=C(C(=O)O)C4C=CC3C4)cc2)C2C=CC1C2`, the TGI with DLD-1 colon, in the assay with DMS 114 small cell lung, in the assay with DMS 273 small cell lung, with M19-MEL melanoma and in the assay with SNB-78 CNS was above 100 µM throughout.
As for `COC(=O)C1=CC2OC1(C)CCC2=O` (stereo unspecified), the TGI in the assay on DLD-1 colon and in the assay on DMS 273 small cell lung was above 100 µM in each case.
In the case of `COC1OC2COC(c3ccccc3)OC2C(O)C1Br` (stereo unspecified), the TGI in the assay with DLD-1 colon, in the assay on DMS 273 small cell lung, in the assay on M19-MEL melanoma and in the assay on SNB-78 CNS was above 100 µM each time.
As for `O=C(NS(=O)(=O)c1ccccc1)C(Cc1ccccc1)C(Cc1ccccc1)C(=O)NS(=O)(=O)c1ccccc1` (stereo unspecified), the TGI with DLD-1 colon, in the assay on DMS 114 small cell lung, with DMS 273 small cell lung and with M19-MEL melanoma was above 100 µM in each case.
Turning to `COC(=O)CCC(=O)NC1C2CC3CC(C2)CC1C3` (stereo unspecified), the TGI in the assay with DLD-1 colon, in the assay with DMS 114 small cell lung, in the assay on DMS 273 small cell lung, in the assay on M19-MEL melanoma and with RXF-631 renal was above 100 µM in each case.
As to `N#CC1=C(Cl)NC(Cl)=C(C#N)C1c1c(Cl)cccc1Cl`, the TGI in the assay with DLD-1 colon is 46.9 µM; in the assay on DMS 114 small cell lung it was 28.3 µM; with DMS 273 small cell lung, 34.5 µM; in the assay with SNB-78 CNS, above 100 µM.
Take `CC(Br)C(=O)Nc1ccc(C(=O)O)c(O)c1` (stereo unspecified): the TGI with BT-549 breast, in the assay on MDA-MB-231 breast and with MDA-N was above 100 µM in each case.
Regarding `C=CS(=O)(=O)CCN1CC1`, the TGI in the assay on BT-549 breast, in the assay with MDA-MB-231 breast and in the assay with MDA-N was above 10 µM throughout.
For the compound `CCC(=O)N/N=C(\C=C\c1cccc(O)c1)c1sc(Nc2ccc(C)cc2[N+](=O)[O-])nc1C`, the TGI in the assay on DLD-1 colon, with DMS 114 small cell lung, with DMS 273 small cell lung, with M19-MEL melanoma and with SNB-78 CNS was above 100 µM each time.
For `O=C1C=CC(CC(=O)c2ccc3ccccc3c2)O1` (stereo unspecified), the TGI with DLD-1 colon was 80.6 µM; in the assay with DMS 273 small cell lung, 45.3 µM; in the assay on M19-MEL melanoma it was above 100 µM; in the assay on SNB-78 CNS it was above 100 µM.
With `Nn1c(N=Nc2c(O)[nH]c3c(Cl)cc(Cl)cc23)n[nH]c1=S`, the TGI with DLD-1 colon, in the assay on DMS 114 small cell lung, in the assay with M19-MEL melanoma and with SNB-78 CNS was above 100 µM throughout.
Consider `COC(=O)C1=C(c2ccc3c(c2)OCO3)OC(c2cc(OC)c(OC)c(OC)c2)C1` (stereo unspecified), for which the TGI in the assay on DLD-1 colon is above 100 µM; in the assay with DMS 114 small cell lung, 9.33 µM; in the assay with DMS 273 small cell lung, 58.8 µM; in the assay with M19-MEL melanoma, above 100 µM; with SNB-78 CNS, above 100 µM.
Turning to `Cc1cccc(C(C)(C)C)c1NC(=O)CC1Sc2ccccc2NC1=O` (stereo unspecified), the TGI in the assay on DLD-1 colon was above 100 µM; in the assay with DMS 114 small cell lung, 83 µM; in the assay on DMS 273 small cell lung it was above 100 µM; in the assay with M19-MEL melanoma it was above 100 µM; in the assay with RXF-631 renal, above 100 µM.
As to `O=C(/C=C1/Nc2ccc([N+](=O)[O-])cc2NC1O)c1cccc([N+](=O)[O-])c1` (stereo unspecified), the TGI with DLD-1 colon, with DMS 114 small cell lung, in the assay on DMS 273 small cell lung, with M19-MEL melanoma and in the assay with SNB-78 CNS was above 100 µM in each case.
With `Cc1cccc2nc3cccc(C(=O)NCCN(C)C)c3nc12`, the TGI in the assay with DLD-1 colon was determined as 21.8 µM; in the assay with DMS 114 small cell lung, 3.13 µM; in the assay on DMS 273 small cell lung it was 4.17 µM; in the assay on M19-MEL melanoma, 3.25 µM; with SNB-78 CNS, 12 µM.
